What is called IC50 is the concentration needed to halve the response being measured.

A value given as a limit tells only on which side of the number the result lay.

In the first assay the target is T1, full length AKT E17K (Homo sapiens, UniProt P31749, E17K).
T1 construct: host or cells: HEK-293 (ATCC CRL-1573)
T1 sequence (P31749 whole entry E17K): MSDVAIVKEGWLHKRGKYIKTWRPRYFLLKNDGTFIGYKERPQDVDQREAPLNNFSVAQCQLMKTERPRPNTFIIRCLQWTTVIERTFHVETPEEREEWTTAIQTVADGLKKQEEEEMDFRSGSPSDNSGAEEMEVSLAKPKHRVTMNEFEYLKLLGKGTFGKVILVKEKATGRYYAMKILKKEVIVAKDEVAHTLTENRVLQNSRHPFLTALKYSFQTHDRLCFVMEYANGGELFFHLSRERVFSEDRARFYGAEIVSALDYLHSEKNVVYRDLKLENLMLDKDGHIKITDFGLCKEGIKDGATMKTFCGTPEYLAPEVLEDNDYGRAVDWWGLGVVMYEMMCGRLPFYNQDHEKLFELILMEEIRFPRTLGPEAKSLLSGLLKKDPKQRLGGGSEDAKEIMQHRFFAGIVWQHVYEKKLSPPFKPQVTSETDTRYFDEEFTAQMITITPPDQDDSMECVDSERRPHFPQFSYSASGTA
The assay is described as follows: NanoBRET Target Engagement (TE) Assay. The format is cell-based. The note with it: competitive displacement of tracer in cells, read-out: AKT1 E17K IC50. A digest of the protocol:
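Compound and tracer incubated 2 h before luminescence at donor 450 nm and acceptor 600 nm, with extracellular signal inhibited. EC50 by sigmoidal variable-slope regression.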
For orientation: In BRET a luciferase serves as donor, and the signal depends on an acceptor being close.
On to `N#Cc1nccc(NC2CCN(Cc3ccc(-n4c(-c5cccnc5N)nc5ccc(-c6cccc(F)c6)nc54)cc3)CC2)n1` [Example 357, 4-((1-(4-(2-(2-Aminopyridin-3-yl)-5-(3-fluorophenyl)-3H-imidazo[4,5-b]pyridin-3-yl)benzyl)piperidin-4-yl)amino)pyrimidine-2-carbonitrile], for which the IC50 was in the range of 0.015 to 0.06 µM.
On to `N#Cc1nccc(N2CC3(CN(Cc4ccc(-n5c(-c6cccnc6N)nc6ccc(-c7ccccc7)nc65)cc4)C3)C2)n1` [Example 366, 4-(6-(4-(2-(2-Aminopyridin-3-yl)-5-phenyl-3H-imidazo[4,5-b]pyridin-3-yl)benzyl)-2,6-diazaspiro[3.3]heptan-2-yl)pyrimidine-2-carbonitrile], for which the IC50 was less than 0.015 µM.
Turning to `Cc1nn(C)cc1-c1ccc2nc(-c3cccnc3N)n(-c3ccc(CN4CCC(Nc5ccnc(C#N)n5)CC4)cc3)c2n1` [Example 539, 4-((1-(4-(2-(2-Aminopyridin-3-yl)-5-(1,3-dimethyl-1H-pyrazol-4-yl)-3H-imidazo[4,5-b]pyridin-3-yl)benzyl)piperidin-4-yl)amino)pyrimidine-2-carbonitrile], the concentration for half-maximal inhibition (IC50) is less than 0.015 µM.
For the molecule `N#Cc1ncnc(NC2CCN(Cc3ccc(-n4c(-c5cccnc5N)nc5ccc(-c6ccc(F)cc6)nc54)cc3)CC2)n1` [Example 487, 4-((1-(4-(2-(2-Aminopyridin-3-yl)-5-(4-fluorophenyl)-3H-imidazo[4,5-b]pyridin-3-yl)benzyl)piperidin-4-yl)amino)-1,3,5-triazine-2-carbonitrile], the IC50 was less than 0.015 µM.
For `N#Cc1nccc(NC2CCN(Cc3ccc(-n4c(-c5nccnc5N)nc5ccc(-c6ccc(OCF)nc6)nc54)cc3)CC2)n1` [Example 639, 4-((1-(4-(2-(3-Aminopyrazin-2-yl)-5-(6-(fluoromethoxy)pyridin-3-yl)-3H-imidazo[4,5-b]pyridin-3-yl)benzyl)piperidin-4-yl)amino)pyrimidine-2-carbonitrile], the IC50 was less than 0.015 µM.
For the molecule `Cc1ccc(-c2ccc3nc(-c4cccnc4N)n(-c4ccc(CN5CCC(Nc6ccnc(C#N)n6)CC5)cc4)c3n2)cc1` [Example 529, 4-((1-(4-(2-(2-Aminopyridin-3-yl)-5-(p-tolyl)-3H-imidazo[4,5-b]pyridin-3-yl)benzyl)piperidin-4-yl)amino)pyrimidine-2-carbonitrile], the 50% inhibitory concentration (IC50) is less than 0.015 µM.

Staying with this assay, now noted: competitive tracer displacement in living cells, read-out: AKT1 E17K IC50.
For `N#Cc1ccnc(C(=O)NC2CCN(Cc3ccc(-n4c(-c5cccnc5N)nc5ccc(-c6ccccc6)nc54)cc3)CC2)c1` [Example 150, N-(1-(4-(2-(2-Aminopyridin-3-yl)-5-phenyl-3H-imidazo[4,5-b]pyridin-3-yl)benzyl)piperidin-4-yl)-4-cyanopicolinamide], the IC50 is 0.06 to 0.6 µM.
For `N#Cc1nccc(NC2CCN(Cc3ccc(-n4c(-c5cccnc5N)nc5ccc(C6CC6)nc54)cc3)CC2)n1` [Example 298, 4-((1-(4-(2-(2-Aminopyridin-3-yl)-5-cyclopropyl-3H-imidazo[4,5-b]pyridin-3-yl)benzyl)piperidin-4-yl)amino)pyrimidine-2-carbonitrile], the IC50 is less than 0.015 µM.
Regarding `N#Cc1cc(NC2CCN(Cc3ccc(-n4c(-c5cccnc5N)nc5cccnc54)cc3)CC2)ncn1` [Example 64, 6-((1-(4-(2-(2-aminopyridin-3-yl)-3H-imidazo[4,5-b]pyridin-3-yl)benzyl)piperidin-4-yl)amino)pyrimidine-4-carbonitrile], the IC50 lay within 0.6 to 10 µM.
On the same count and under the same terms, for `N#Cc1ccnc(NC2CCN(Cc3ccc(-n4c(-c5cccnc5N)nc5ccc(-c6ccccc6)nc54)cc3)CC2)c1` [Example 87, 2-((1-(4-(2-(2-Aminopyridin-3-yl)-5-phenyl-3H-imidazo[4,5-b]pyridin-3-yl)benzyl)piperidin-4-yl)amino)isonicotinonitrile] the value was 0.06 to 0.6 µM; for `N#Cc1ncnc(N2CC3CCC(C2)N3Cc2ccc(-n3c(-c4cccnc4N)nc4ccc(N5CCOCC5)nc43)cc2)n1` [Example 285, 4-(8-(4-(2-(2-Aminopyridin-3-yl)-5-morpholino-3H-imidazo[4,5-b]pyridin-3-yl)benzyl)-3,8-diazabicyclo[3.2.1]octan-3-yl)-1,3,5-triazine-2-carbonitrile], less than 0.015 µM.

(Values after US12209087B2, “AKT1 modulators” (Alterome Therapeutics, Inc., priority 2022, dated 2025).)
